# Results reported in patent publication US6365621B1, “Remedies or preventives for intractable epilepsy” (Pharmaceutical Co., Ltd., priority 1998, dated 2002).
# Several values for one entry are separate records, joined by “and”; a condition that tells them apart may be missing. Identical values can stand only once.
# Key:
# [1] = test system: kainate-induced cortical focal seizures; assay: Kainate-induced cortical focal seizures: behavior and electroencephalogram; assay type: in vivo, rat; conditions: 100 mg/kg i.v. As to Decrease of Spikes: key: (+): effective; (−): ineffective. As to Sedative action: key: (+): effective; (−): ineffective. As to Spikes after 24 hours: key: (+): effective; (−): ineffective.
# Description: [Method for measuring an electrophysiological effect] A stereotaxic operation was performed through the same manner as described in I-1 by use of Wistar male rats. A cannula was inserted in the left sensorimotor area for injection of kainic acid, and the cannula was simultaneously used as an electrode. A bipolar depth electrode was set in the bilateral caudatum, and screw electrodes were set in the right sensorimotor area, frontal sinus, and occipital bone. Seven days after operation, 1 μL of kainic acid solution (2 mg/mL) was injected so as to induce cortical focal seizures. After elapse of 1-2 hours from the injection of kainic acid, the same nefiracetam solution as described in I-1 (100 mg/kg) was intravenously injected, and behavior and electroencephalograms were recorded by use of a video electroencephalogram recorder. Suppression of seizures just after the administration of nefiracetam, changes in electroencephalograms, occurrence of seizures thereafter, and electroencephalogram observations were compared with those of the control group.
# [2] = test system: fully amygdala kindled rats; assay: Seizures in fully amygdala kindled rats (GST stimulation); assay type: in vivo, rat; conditions: for Change of ADD (%): afterdischarge duration before administration = 100; for Change of MSD (%): motor seizure duration before administration = 100
# Description: [Method for preparing a kindling model] Male Wistar rats (weight: 200-250 g, Tokyo Jikken Dobutsu) were used, and pentobarbital (50 mg/kg, Dinabot) and ketamine (50 mg/kg, Sankyo Co., Ltd.) were used as anesthetic agents.
# A dose-response of nefiracetam (15-180 mg/kg) with respect to a kindling seizure induced GTS stimulation intensity was evaluated in terms of the following parameters: seizure stage, and afterdischarge duration at the sitimulated amygdala and motor seizure duration.
# In accordance with the method of Racine et al. (Modification of seizure activity by electrical stimulation: II motor seizure. Electroencephalography Clin. Neurophysiol. 1972. 32: 281-294), seizures were classified into the following five stages: stage 1 (chewing); stage 2 (head nodding); stage 3 (forelimb clonus); stage 4 (rearing); and stage 5 (rearing and falling).
# Motor seizure duration (seconds) was represented by the total duration of stages 3 through 5. Stage 1 or Stage 2 is a seizure symptom of the limbic system, and Stage 3, 4, or 5 is regarded a motor seizure (Sato, M., Racine, R. J., McIntyre, D. C., Kindling: basic mechanisms and clinical validity, Electroencephalography Clin. Neurophysiol. 1990, 76: 459-472).
# Afterdischarge duration (seconds) was recorded by use of an electrode for recording, and was represented by the seizure-discharge duration shown in a electroencephalogram, which is induced by a kindling stimulation. Nefiracetam was dissolved into a solvent (0.5% carboxymethyl cellulose) and the solution was administered orally 90 minutes before GST stimulation, wherein the amount of administered nefiracetam is classified into several stages within a range of 15-180 mg/kg.
# [Method] The rats used in this Example were of the same type in terms of the source of purchase, body weight, and age (week). For each rat, in the same manner as in of Example 1, there were performed anesthetization, setting of an electrode on the amygdala, fixation of the electrode at the cranial bone, and a kindling stimulation (50 Hz, sine wave).
# For non-administered rats and nefiracetam-administered rats (120 mg/kg), the effect of the administration was evaluated when GST stimulation intensity was increased by a factor of two (GST 2) or three (GST 3). The effect of 120 mg/kg of nefiracetam on kindling seizures induced by one-fold, two-fold, and three-fold GTS stimulation was evaluated in terms of the following parameters: seizure stage, motor seizure duration, and afterdischarge duration.
smiles,measurement,setting,value
"Cc1cccc(C)c1NC(=O)CN1CCCC1=O [nefiracetam, N-(2,6-dimethylphenyl)-2-(2-oxo-1-pyrrolidinyl)acetamide]",Seizures after awakening,[1],seizures did not appear after awakening
same,Seizures after intravenous injection during status epilepticus,[1],the seizures disappeared immediately
same,Time to awakening from sedation,[1],≤ 60 min
same,Decrease of Spikes,[1]; individual rats,+
same,Disappear of seizures,[1]; individual rats,+
same,Reappear of seizures,[1]; individual rats,−
same,Sedative action,[1]; individual rats,+
same,Spikes after 24 hours,[1]; individual rats,− and + (2×)
same,Change of stage (%),"[2]; 15 mg/kg p.o. 90 min before GST stimulation, seizure stage before administration = 100",80.0%
same,Change of ADD (%),[2]; 15 mg/kg p.o.,81.7%
same,Change of stage (%),"[2]; 30 mg/kg p.o. 90 min before GST stimulation, seizure stage before administration = 100",100.0%
same,Change of ADD (%),[2]; 30 mg/kg p.o.,99.9%
same,Change of stage (%),"[2]; 60 mg/kg p.o. 90 min before GST stimulation, seizure stage before administration = 100",80.0%
same,Change of ADD (%),[2]; 60 mg/kg p.o.,83.9%
same,Change of stage (%),"[2]; 90 mg/kg p.o. 90 min before GST stimulation, seizure stage before administration = 100",76.0%
same,Change of ADD (%),[2]; 90 mg/kg p.o.,82.3%
same,Change of stage (%),"[2]; 120 mg/kg p.o. 90 min before GST stimulation, seizure stage before administration = 100",13.3%
same,Change of ADD (%),[2]; 120 mg/kg p.o.,25.0%
same,Effect on afterdischarge duration,"[2]; 120 mg/kg, 3-times-GST stimulation intensity",the afterdischarge duration was restored
same,Change of stage (%),"[2]; 120 mg/kg, GST intensity 1-fold, before administration = 100",16.7%
same,Change of MSD (%),"[2]; 120 mg/kg, GST intensity 1-fold",11.1%
same,Change of stage (%),"[2]; 120 mg/kg, GST intensity 2-fold, before administration = 100",14.7%
same,Change of MSD (%),"[2]; 120 mg/kg, GST intensity 2-fold",15.2%
same,Change of stage (%),"[2]; 120 mg/kg, GST intensity 3-fold, before administration = 100",52.0%
same,Change of MSD (%),"[2]; 120 mg/kg, GST intensity 3-fold",43.8%
same,Effect on afterdischarge duration,"[2]; 120 mg/kg, one-fold GST stimulation intensity",significant and strong inhibition
same,Effect on afterdischarge duration,"[2]; 120 mg/kg, two-fold GST stimulation intensity",an effect on afterdischarge duration was reduced
same,Change of stage (%),"[2]; 180 mg/kg p.o. 90 min before GST stimulation, seizure stage before administration = 100",36.0%
same,Change of ADD (%),[2]; 180 mg/kg p.o.,24.8%
same,"Effect on seizure stage, motor seizure duration and afterdischarge duration","[2]; 15-180 mg/kg p.o., GST stimulation",dose-dependent inhibition
same,ED50 (effect on seizure stage),"[2]; regression curve by least-squares method, p.o., fully kindled rats",114 mg/kg
